IC50 data for eleven molecules are collected here from BindingDB's records for doi:10.1016/j.bmcl.2009.04.079 (China Pharmaceutical University, 2009).

The nature of this experiment: Inhibition of NHE1-mediated rat platelet swelling.

Each structure is given as a SMILES string. Where a name gives a salt, the structure may show the parent alone.

The molecule `COc1ccc(CN2CCN(Cc3ccc(C(=O)NC(=N)N)cc3Br)CC2)c(OC)c1OC` [3-bromo-N-(diaminomethylene)-4-((4-(2,3,4-trimethoxybenzyl)piperazin-1-yl)methyl)benzamide hydrochloride] gave an IC50 of 248 nM. To `CCCNS(=O)(=O)c1cc(C(=O)NC(=N)N)ccc1CN1CCN(Cc2ccc(OC)c(OC)c2OC)CC1` [N-(diaminomethylene)-3-(N-propylsulfamoyl)-4-((4-(2,3,4-trimethoxybenzyl)piperazin-1-yl)methyl)benzamide hydrochloride] belongs 1150 nM. Molecule `COc1ccc(CN2CCN(Cc3cc(C(=O)NC(=N)N)ccc3[N+](=O)[O-])CC2)c(OC)c1OC` [N-(diaminomethylene)-4-nitro-3-((4-(2,3,4-trimethoxybenzyl)piperazin-1-yl)methyl)benzamide hydrochloride] yielded an IC50 of 14.2 nM. With `CNS(=O)(=O)c1cc(C(=O)NC(=N)N)ccc1CN1CCN(Cc2ccc(OC)c(OC)c2OC)CC1` [N-(diaminomethylene)-3-(N-methylsulfamoyl)-4-((4-(2,3,4-trimethoxybenzyl)piperazin-1-yl)methyl)benzamide hydrochloride], it took 15 nM to reach half-maximal inhibition (IC50). The IC50 values of the last two molecules are within 1.5-fold of each other.

Take `COc1ccc(CN2CCN(Cc3ccc(C(=O)NC(=N)N)cc3[N+](=O)[O-])CC2)c(OC)c1OC`: half-maximal inhibition (IC50) required 3.6 nM. Molecule `COc1ccc(CN2CCN(Cc3ccc(C(=O)NC(=N)N)cc3)CC2)c(OC)c1OC` [N-(diaminomethylene)-4-((4-(2,3,4-trimethoxybenzyl)piperazin-1-yl)methyl)benzamide hydrochloride] returned an IC50 of 36.4 nM. The result for `COc1ccc(CN2CCN(Cc3cccc(C(=O)NC(=N)N)c3)CC2)c(OC)c1OC` [N-(diaminomethylene)-3-((4-(2,3,4-trimethoxybenzyl)piperazin-1-yl)methyl)benzamide hydrochloride] reads 36.5 nM; that for `COc1ccc(CN2CCN(C(C)c3ccc(C(=O)NC(=N)N)cc3)CC2)c(OC)c1OC` (stereo unspecified) [N-(diaminomethylene)-4-(1-(4-(2,3,4-trimethoxybenzyl)piperazin-1-yl)ethyl)benzamide hydrochloride], 40.5 nM. The result for `COc1ccc(CN2CCN(C(C)c3ccc(C(=O)NC(=N)N)cc3[N+](=O)[O-])CC2)c(OC)c1OC` (stereo unspecified) [N-(diaminomethylene)-3-nitro-4-(1-(4-(2,3,4-trimethoxybenzyl)piperazin-1-yl)ethyl)benzamide hydrochloride] reads 18.7 nM; that for `COc1ccc(CN2CCN(Cc3ccccc3C(=O)NC(=N)N)CC2)c(OC)c1OC` [N-(diaminomethylene)-2-((4-(2,3,4-trimethoxybenzyl)piperazin-1-yl)methyl)benzamide hydrochloride], 11.1 nM; that for `COc1ccc(CN2CCN(Cc3ccc(C(=O)NC(=N)N)cc3S(N)(=O)=O)CC2)c(OC)c1OC` [N-(diaminomethylene)-3-sulfamoyl-4-((4-(2,3,4-trimethoxybenzyl)piperazin-1-yl)methyl)benzamide hydrochloride], 11.5 nM.
